# Experimental data from patent publication US20130345199A1, “1-[M-CARBOXAMIDO(HETERO)ARYL-METHYL]-PIPERIDINE-4-CARBOXAMIDE DERIVATIVES” (Actelion Pharmaceuticals Ltd., priority 2012, published 2013).
# Biological target: T1, CXCR7 (Homo sapiens, UniProt P25106)
# T1 construct: host or cells: CHO-K1 (PathHunter CXCR7 b-arrestin cell line, stably transfected)
# Test: PathHunter CHO-K1 CXCR7 b-arrestin assay (agonistic activity)
# Format: cell-based
# Settings: PathHunter CHO-K1 CXCR7 b-arrestin cell line, 90 minutes at 37° C.
# Description: The […] receptor and CXCR7 agonistic activities of the compounds of formula (I) are determined in accordance with the following experimental method.
# The assay is using the PathHunter™ CHO-K1 CXCR7 b-arrestin cell line from DiscoverX. The system is based on the Enzyme Fragment Complementation Technology. Two complementing fragments of the b-galactosidase enzyme are expressed within stably transfected cells. The larger portion of b-gal, termed EA for Enzyme Acceptor, is fused to the C-terminus of b-arrestin 2. The smaller fragment, termed ProLink™ tag, is fused to CXCR7 at the C-terminus. Upon activation, b-arrestin is recruited which forces the interaction of ProLink and EA, allowing complementation of the two fragments of b-gal and the formation of a functional enzyme which is capable of hydrolysing the substrate and generating a chemiluminescent signal.
# CHO-K1 CXCR7 b-arrestin cells are detached from culture dishes with a cell dissociation buffer (Invitrogen, #13151-014) and collected in growing medium (F12HAMS 90% (v/v)/FCS 10% (v/v), Penicilin/streptomycin 1% (v/v)). 5000 cells per well (in 20 μl) are seeded in a 384 well plate (white-walled, clear bottom; BD Falcon #353274). The plate is incubated at 37° C./5% CO2 for 24 hours. Medium is then replaced by […] (Invitrogen #31985) for 3 to 4 hours. Test compounds are dissolved at 10 mM in DMSO and serially diluted in DMSO to 200× of the final concentration for dose response curves. Compounds are then diluted 1:33.3 in HBSS1X. 5 μl/well of HBSS1X/20 mM HEPES/0.2% BSA are added to the assay plate followed by addition of 5 μl/well of diluted compounds. CXCL12 (Peprotech #300-28A) may be used as a reference agonist. The plate is incubated for 90 minutes at 37° C. 12 μl of detection reagent (Path Hunter Detection Kit, DiscoveRx, #93-0001) is transferred to the assay plate and to the plate is incubated for 1 hour at room temperature. Luminescent signal is read in a microplate reader (FLUOstar Optima, bmg). The calculated EC50 values may fluctuate depending on the daily cellular assay performance. Fluctuations of this kind are known to those skilled in the art.
# T1 sequence (P25106 whole entry): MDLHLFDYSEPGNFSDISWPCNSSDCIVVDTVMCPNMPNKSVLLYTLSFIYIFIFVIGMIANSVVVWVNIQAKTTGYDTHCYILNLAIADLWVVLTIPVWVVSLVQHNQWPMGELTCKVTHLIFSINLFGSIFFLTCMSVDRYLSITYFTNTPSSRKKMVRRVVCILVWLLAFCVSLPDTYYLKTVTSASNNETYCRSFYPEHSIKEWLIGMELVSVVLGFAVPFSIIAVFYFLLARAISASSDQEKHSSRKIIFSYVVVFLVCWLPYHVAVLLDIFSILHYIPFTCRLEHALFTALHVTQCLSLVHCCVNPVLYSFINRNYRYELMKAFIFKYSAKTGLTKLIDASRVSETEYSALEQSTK
row,Compound,EC50
1,COc1cccc(CNC(=O)C2CCN(Cc3cccc(NC(=O)c4ccc(Cl)cc4)c3)CC2)c1 [Example 2.028],394 nM
2,"O=C(Nc1ccnc(CN2CCC(C(=O)NC3CCCCC3)CC2)c1)c1ccc(F)cc1 [Example 3.006, 1-[4-(4-Fluoro-benzoylamino)-pyridin-2-ylmethyl]-piperidine-4-carboxylic acid cyclohexylamide]",56 nM
3,"Cc1cncc(C(=O)Nc2cc(CN3CCC(C(=O)NC(C)(C)C)CC3)cs2)c1 [Example 3.012, N-[4-(4-tert-Butylcarbamoyl-piperidin-1-ylmethyl)-thiophen-2-yl]-5-methyl-nicotinamide]",44 nM
4,Cc1cncc(C(=O)Nc2cccc(CN3CCC(C(=O)NC(C)(C)C)CC3)c2)c1 [Example 2.039],3 nM
5,CN(C(=O)C1CCN(Cc2cccc(NC(=O)c3cccs3)c2)CC1)C1CCCCC1 [Example 2.077],87 nM
6,O=C(Nc1cccc(CN2CCC(C(=O)NCc3ccccc3)CC2)c1)c1cccs1 [Example 2.076],780 nM
7,Cc1cncc(C(=O)Nc2cccc(CN3CCC(C(=O)N4CCC(F)(F)C4)CC3)c2)c1 [Example 2.054],109 nM
8,CCCCCCN(C)C(=O)C1CCN(Cc2cccc(NC(=O)c3cccc(C(F)(F)F)n3)c2)CC1 [Example 2.079],226 nM
9,O=C(Nc1cccc(CN2CCC(C(=O)NC3CCC(O)CC3)CC2)c1)c1ccc(Cl)cc1 (stereo not drawn) [Example 2.011],241 nM
10,O=C(Nc1cccc(CN2CCC(C(=O)NCC3CCCC3)CC2)c1)c1ccc(Cl)cc1 [Example 2.010],4 nM
11,Cc1cncc(C(=O)Nc2cccc(CN3CCC(C(=O)N(C)CC(C)C)CC3)c2)c1 [Example 2.057],8 nM
12,CCC(C)(C)NC(=O)C1CCCN(Cc2cccc(NC(=O)c3cccc(C(F)(F)F)n3)c2)CC1 (racemic) [Example 2.088],19 nM
13,"O=C(Nc1ccnc(CN2CCC(C(=O)NC3CCCCC3)CC2)c1)c1ccc(Cl)cc1 [Example 3.007, 1-[4-(4-Chloro-benzoylamino)-pyridin-2-ylmethyl]-piperidine-4-carboxylic acid cyclohexylamide]",28 nM
14,"Cc1cncc(C(=O)Nc2csc(CN3CCC(C(=O)NC(C)(C)C)CC3)c2)c1 [Example 3.013, N-[5-(4-tert-Butylcarbamoyl-piperidin-1-ylmethyl)-thiophen-3-yl]-5-methyl-nicotinamide]",13 nM
15,"O=C(Nc1cc(CN2CCC(C(=O)NC3CCCCC3)CC2)ccn1)c1ccc(Cl)cc1 [Example 3.002, 1-[2-(4-Chloro-benzoylamino)-pyridin-4-ylmethyl]-piperidine-4-carboxylic acid cyclohexylamide]",57 nM
16,rac-2-Methyl-pyrimidine-4-carboxylic acid {3-[1-(4-cyclohexylcarbamoyl-piperidin-1-yl)-ethyl]-phenyl}-amide [Example 1.197],15 nM
17,O=C(Nc1cccc(CN2CCC(C(=O)NCc3ccccn3)CC2)c1)c1ccc(Cl)cc1 [Example 2.022],20 nM
18,Cc1cncc(C(=O)Nc2cccc(CN3CCCC(C(=O)NCC4CC4)CC3)c2)c1 (racemic) [Example 2.084],304 nM
19,CC(C)(C)NC(=O)C1CCN(Cc2cccc(NC(=O)c3ccc(Cl)cc3)c2)CC1 [Example 2.004],1 nM
20,CCCN(C)C(=O)C1CCN(Cc2cccc(NC(=O)c3cncc(C)c3)c2)CC1 [Example 2.056],6 nM
21,"Cc1cncc(C(=O)Nc2cccc(CN3CCC(C)(C(=O)NC(C)(C)C)CC3)c2)c1 [Example 4.004, N-[3-(4-tert-Butylcarbamoyl-4-methyl-piperidin-1-ylmethyl)-phenyl]-5-methyl-nicotinamide]",59 nM
22,COC(C)CNC(=O)C1CCN(Cc2cccc(NC(=O)c3cccc(C(F)(F)F)n3)c2)CC1 (stereo not drawn) [Example 2.093],6 nM
23,O=C(Nc1cccc(CN2CCC(C(=O)NCc3nccs3)CC2)c1)c1ccc(Cl)cc1 [Example 2.024],32 nM
24,CCC(CO)NC(=O)C1CCN(Cc2cccc(NC(=O)c3cccc(C(F)(F)F)n3)c2)CC1 (stereo not drawn) [Example 2.065],26 nM

row,Compound,EC50
1,O=C(Nc1cccc(CN2CCC(C(=O)NCc3ccccc3Cl)CC2)c1)c1ccc(Cl)cc1 [Example 2.025],17 nM
2,"O=C(Nc1cccc(CN2CCC(C(=O)NC3CCCCC3)CC2)c1)c1ccc(F)c[n+]1[O-] [Example 4.005, 5-Fluoro-1-oxy-pyridine-2-carboxylic acid [3-(4-cyclohexylcarbamoyl-piperidin-1-ylmethyl)-phenyl]-amide]",4 nM
3,O=C(Nc1cccc(CN2CCC(C(=O)NCc3cccc(Cl)c3)CC2)c1)c1ccc(Cl)cc1 [Example 2.027],442 nM
4,CNC(=O)C1CCN(Cc2cccc(NC(=O)c3cccc(C(F)(F)F)n3)c2)CC1 [Example 2.068],4 nM
5,COCCN(C)C(=O)C1CCN(Cc2cccc(NC(=O)c3cncc(C)c3)c2)CC1 [Example 2.058],224 nM
6,"O=C(Nc1cccc(CN2CCC(C(=O)NC3CCCC3)CC2)c1)c1ccc(Cl)cc1 [Example 2.001, 1-[3-(4-Chloro-benzoylamino)-benzyl]-piperidine-4-carboxylic acid cyclopentylamide]",0.9 nM
7,"Cc1cncc(C(=O)Nc2ccc(F)c(CN3CCC(C(=O)NC(C)(C)C)CC3)c2)c1 [Example 4.019, N-[3-(4-tert-Butylcarbamoyl-piperidin-1-ylmethyl)-4-fluoro-phenyl]-5-methyl-nicotinamide]",8 nM
8,"COc1cncc(C(=O)Nc2cccc(CN3CCC(C(=O)NC4CCCCC4)CC3)c2)c1 [Example 4.012, N-[3-(4-Cyclohexylcarbamoyl-piperidin-1-ylmethyl)-phenyl]-5-methoxy-nicotinamide]",10 nM
9,"Cc1cncc(C(=O)Nc2cccc(CN3CCC(C)(C(=O)NC4CCCCC4)CC3)c2)c1 [Example 4.003, N-[3-(4-Cyclohexylcarbamoyl-4-methyl-piperidin-1-ylmethyl)-phenyl]-5-methyl-nicotinamide]",197 nM
10,"O=C(Nc1ccc(F)c(CN2CCC(C(=O)NC3CCCCC3)CC2)c1)c1cccc(C(F)(F)F)n1 [Example 4.016, 6-Trifluoromethyl-pyridine-2-carboxylic acid [3-(4-cyclohexylcarbamoyl-piperidin-1-ylmethyl)-4-fluoro-phenyl]-amide]",3 nM
11,CC(C)NC(=O)C1CCN(Cc2cccc(NC(=O)c3ccc(Cl)cc3)c2)CC1 [Example 2.003],0.8 nM
12,"Cc1cncc(C(=O)Nc2cccc(CN3CCC(F)(C(=O)NC(C)(C)C)CC3)c2)c1 [Example 4.002, N-[3-(4-tert-Butylcarbamoyl-4-fluoro-piperidin-1-ylmethyl)-phenyl]-5-methyl-nicotinamide]",16 nM
13,COc1ccccc1CNC(=O)C1CCN(Cc2cccc(NC(=O)c3ccc(Cl)cc3)c2)CC1 [Example 2.026],15 nM
14,"O=C(Nc1cccc(CN2CCC(C(=O)NC3CCCCC3)CC2)c1)c1ccc(Cl)cc1 [Example 1.001, 1-[3-(4-Chloro-benzoylamino)-benzyl]-piperidine-4-carboxylic acid cyclohexylamide]",2 nM
15,CCC(CC)NC(=O)C1CCN(Cc2cccc(NC(=O)c3cncc(C)c3)c2)CC1 [Example 2.040],8 nM
16,CCCCNC(=O)C1CCN(Cc2cccc(NC(=O)c3cccc(C(F)(F)F)n3)c2)CC1 [Example 2.095],2 nM
17,Cc1cncc(C(=O)Nc2cccc(CN3CCC(C(=O)N4CC[C@H](F)C4)CC3)c2)c1 [Example 2.053],195 nM
18,CC(C)(NC(=O)C1CCN(Cc2cccc(NC(=O)c3ccc(Cl)cc3)c2)CC1)c1ccccc1 [Example 2.017],219 nM
19,Cc1cncc(C(=O)Nc2cccc(CN3CCC(C(=O)N(C)C)CC3)c2)c1 [Example 2.055],60 nM
20,Cc1cncc(C(=O)Nc2cccc(CN3CCC(C(=O)NC4CCC4)CC3)c2)c1 [Example 2.041],13 nM
21,Cc1cncc(C(=O)Nc2cccc(CN3CCC(C(=O)N4C(C)CCC4C)CC3)c2)c1 (stereo not drawn) [Example 2.051],96 nM
22,Cc1cncc(C(=O)Nc2cccc(CN3CCC(C(=O)N4CC[C@@H](F)C4)CC3)c2)c1 [Example 2.052],121 nM
23,CCCNC(=O)C1CCN(Cc2cccc(NC(=O)c3cccc(C(F)(F)F)n3)c2)CC1 [Example 2.094],1 nM
24,"O=C(Nc1cncc(CN2CCC(C(=O)NC3CCCCC3)CC2)c1)c1ccc(F)cc1 [Example 3.005, 1-[5-(4-Fluoro-benzoylamino)-pyridin-3-ylmethyl]-piperidine-4-carboxylic acid cyclohexylamide]",57 nM
